Here are results for 4 compounds from ChEMBL document CHEMBL3774353, “Efficacy of peptide nucleic acid and selected conjugates against specific cellular pathologies of amyotrophic lateral sclerosis” (Bioorg Med Chem, 2016).

For this assay, the target named is Superoxide dismutase [Cu-Zn] (Homo sapiens) (UniProt P00441). As to the kind of experiment: Binding affinity to human EGFP-tagged SOD1 A4V mutant mRNA expressed in mouse Neuro2a cells assessed as reduction in cells bearing inclusions at 25 uM measured 72 hrs post transfection by Hoechst33342 staining-based epifluorescence microscopic analysis (reference value: 19 to 21%). On the set-up: scale not given: the % may be the effect or the level left. It counts as cell-based.
Sequence of Superoxide dismutase [Cu-Zn] (Homo sapiens) (P00441 whole entry): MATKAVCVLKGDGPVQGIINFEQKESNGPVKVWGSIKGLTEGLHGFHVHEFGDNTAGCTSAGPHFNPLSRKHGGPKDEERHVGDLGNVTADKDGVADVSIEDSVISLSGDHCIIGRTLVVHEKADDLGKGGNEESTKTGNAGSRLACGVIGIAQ
Turning to `O=C(CS)N[C@@H]1CCCC[C@H]1NC(=O)CS` (racemic), the Activity came out at 14%.
In the case of `CCOC(=O)C1(C)CCc2c(Cn3cc(CCC(=O)NCCN(CC(=O)NCCN(CC(=O)NCCN(CC(=O)NCCN(CC(=O)NCCN(CC(=O)NCCN(CC(=O)NCCN(CC(=O)NCCN(CC(=O)NCCN(CC(N)=O)C(=O)Cn4cnc5c(=O)[nH]c(N)nc54)C(=O)Cn4ccc(N)nc4=O)C(=O)Cn4cnc5c(N)ncnc54)C(=O)Cn4ccc(N)nc4=O)C(=O)Cn4cnc5c(=O)[nH]c(N)nc54)C(=O)Cn4cnc5c(N)ncnc54)C(=O)Cn4ccc(N)nc4=O)C(=O)Cn4cc(C)c(=O)[nH]c4=O)C(=O)Cn4cc(C)c(=O)[nH]c4=O)nn3)c(OC(C)=O)c(C)c(C)c2O1` (centres undefined), the Activity came to 14%.
`Cc1c(C)c2c(c(C)c1O)CCC(C)(C(=O)NCCN(CC(=O)NCCN(CC(=O)NCCN(CC(=O)NCCN(CC(=O)NCCN(CC(=O)NCCN(CC(=O)NCCN(CC(=O)NCCN(CC(=O)NCCN(CC(N)=O)C(=O)Cn1cnc3c(=O)[nH]c(N)nc31)C(=O)Cn1ccc(N)nc1=O)C(=O)Cn1cnc3c(N)ncnc31)C(=O)Cn1ccc(N)nc1=O)C(=O)Cn1cnc3c(=O)[nH]c(N)nc31)C(=O)Cn1cnc3c(N)ncnc31)C(=O)Cn1ccc(N)nc1=O)C(=O)Cn1cc(C)c(=O)[nH]c1=O)C(=O)Cn1cc(C)c(=O)[nH]c1=O)O2` (centres undefined): the Activity was found to be 16%.
The value for `CC(=O)Oc1c(C)c(C)c2c(c1Cn1cc(CCC(=O)NCCN(CC(=O)NCCN(CC(=O)NCCN(CC(=O)NCCN(CC(=O)NCCN(CC(=O)NCCN(CC(=O)NCCN(CC(=O)NCCN(CC(=O)NCCN(CC(N)=O)C(=O)Cn3cnc4c(=O)[nH]c(N)nc43)C(=O)Cn3ccc(N)nc3=O)C(=O)Cn3cnc4c(N)ncnc43)C(=O)Cn3ccc(N)nc3=O)C(=O)Cn3cnc4c(=O)[nH]c(N)nc43)C(=O)Cn3cnc4c(N)ncnc43)C(=O)Cn3ccc(N)nc3=O)C(=O)Cn3cc(C)c(=O)[nH]c3=O)C(=O)Cn3cc(C)c(=O)[nH]c3=O)nn1)CCC(C)(CCCC(C)CCCC(C)CCCC(C)C)O2` (centres undefined) was 17%.
